From PubChem BioAssay AID1963847 (Molecular Pharmacology Branch, DTP, NCI, 2024)

Tested on: 415267-285-R-J2-PDC complex spheroid viability
Assay: Anticancer human tumor 415267-285-R-J2-PDC patient-derived breast carcinoma cell line growth inhibition [POLQ]
Conditions: for IC50: curve of first compound; for viability, T/C: stronger effect = lower value
Description: Multicellular complex tumor spheroid response to Polymerase (POL) inhibitors (novobiocin, ART-558, RP6685) in combination with a variety of drugs and investigational agents in selected tumor cell lines
The POL inhibitors (novobiocin, ART-558, and RP6685) were evaluated both individually and in combination with standard of care and investigational anticancer small molecules within a complex spheroid model of solid tumors. . Complex spheroids include a stromal component modeled by human endothelial cells (HUVEC) and fibroblasts modeled by human mesenchymal stem cells (MSCs). The concentration ranges selected for each drug and investigational agent were based upon clinically achievable concentrations if the clinical Cmax of the agent was known.
Compounds. The drugs and investigational agents: novobiocin (NSC847541), ART-558 (NSC835418), RP-6685 (NSC848927), peposertib (NSC802822), ceralasertib (NSC780249), elimusertib (NSC800525), camonsertib (NSC841442), AZD-1390 (NSC803789), olaparib (NSC753686), talazoparib (NSC767125), rucaparib (NSC756644), sotorasib (NSC818433), MRTX-1133 (NSC836407), SN-38 (NSC673596), topotecan (NSC609699), epotoside (NSC141540), doxorubicin (NSC123127), gemcitabine (NSC613327), 5-fluorouracil (NSC19893), paclitaxel (NSC125973), vemurafenib (NSC761431), MSA-2 (NSC828583), SN-011 (NSC837082), adavosertib (NSC754352), prexasertib (NSC758257), carboplatin (NSC241240) and oxaliplatin (NSC266046), were obtained from the National Cancer Institute (NCI) Developmental Therapeutics Program Chemical Repository (21). The FDA-approved anticancer drug set is available from the Developmental Therapeutics Program at https://dtp.cancer.gov/organization/dscb/obtaining/. […] The stock solutions were prepared in dimethyl sulfoxide (DMSO, Sigma-Aldrich, St. Louis, MO, cat. D2650), except for the platinum compounds which were prepared in saline (Quality Biological, Gaithersburg, MD, cat. 114-055-101), at 800-fold the tested concentration and stored at -70 degrees C prior to their use. All drugs and investigational agents were tested over a range starting from a high concentration at or near the clinical Cmax and decreasing in half-log increments. If the clinical Cmax for an agent had not been determined, the highest concentration tested was 10 microM, except for SN-38, which was tested at a high concentration of 1 microM.
Cell Culture. All cells were maintained in an incubator at 37 degrees C and 5% CO2 with 95% humidity. The PDC lines were cultured according to standard operating procedures established by the NCI PDMR (https://pdmr.cancer.gov). Table 3 of the manuscript, lists the cell lines along with the number of the three cell types plated to form the mct-spheroids and media for tumor cell growth. After thawing, all PDC lines, except 997537-175-T-J1-PDC and 415267-285-R-J2-PDC, were cultured in Matrigel-coated flasks prepared with a working solution of 1X Ham's F-12 nutrient mix, without supplementation (Thermo Fisher Scientific, cat. 11765054), 100 U/mL penicillin-streptomycin (Thermo Fisher Scientific, cat. 15140122), and 2.5% Matrigel (Corning Inc., Corning, NY, cat. 354248) for the first three passages. The two PDC lines 997537-175-T-J1-PDC and 415267-285-R-J2-PDC were cultured on uncoated flasks. The 857933-349-R-J2-PDC line was cultured in 6C/Colon 1B media containing advanced DMEM/F-12 (Thermo Fisher Scientific, cat. 12634028), 10 mM HEPES (Thermo Fisher Scientific, cat. 15630080), 1X GlutaMAX supplement (Thermo Fisher Scientific, cat. 35050061), 0.1 mg/mL primocin (InvivoGen, San Diego, CA, cat. ant-pm-2), 10% defined fetal bovine serum, heat inactivated (HyClone Laboratories Inc., Logan, UT, cat. SH30070.03HI), 50% L-WRN conditioned media (ATCC, cat. CRL-3276), 1.25 mM N-Acetyl-L-cysteine (Sigma-Aldrich, cat. A9165), 10 mM nicotinamide (Sigma-Aldrich, cat. N0636), 1X B-27 supplement (Thermo Fisher Scientific, cat. 17504044), 1X N-2 supplement (Thermo Fisher Scientific, cat. […]

[1] = second compound 0.0316 µM, first compound 0.0316 µM
[2] = second compound 0.0316 µM, first compound 0.1 µM
[3] = second compound 0.1 µM, first compound 0.0316 µM
[4] = second compound 0.1 µM, first compound 0.1 µM
[5] = second compound 0.316 µM, first compound 0.0316 µM
[6] = second compound 0.316 µM, first compound 0.1 µM
[7] = second compound 1 µM, first compound 0.0316 µM
[8] = second compound 1 µM, first compound 0.1 µM
[9] = second compound 3.16 µM, first compound 0.0316 µM
[10] = second compound 3.16 µM, first compound 0.1 µM
[11] = second compound 10 µM, first compound 0.0316 µM
[12] = second compound 10 µM, first compound 0.1 µM
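Also: spheroids exposed to compounds for one week before readout.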
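For viability, T/C in this document: luminescence used as stand-in measure of viable cells; 100% = DMSO vehicle control viability.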

CCc1cc2c(N3CCc4c(cc(Cn5ccnc5)cc4-c4cn(C)nc4C(F)(F)F)C3=O)ccnc2c(OC)n1 + Nc1ccc(C#CCN(C(=O)Cc2ncc(C(F)(F)F)cc2C(F)(F)F)c2ccc(F)cc2)nn1
IC50 (second compound 0.0316 µM): > 10 µM | IC50 (second compound 0.1 µM): > 10 µM | IC50 (second compound 0.316 µM): > 10 µM | IC50 (second compound 1 µM): > 10 µM | IC50 (second compound 3.16 µM): > 10 µM | IC50 (second compound 10 µM): > 10 µM | viability, T/C [1]: 95.8% | viability, T/C [2]: 92.1% | viability, T/C (second compound 0.0316 µM, first compound 0.316 µM): 78.2% | viability, T/C (second compound 0.0316 µM, first compound 1 µM): 87.2% | viability, T/C (second compound 0.0316 µM, first compound 3.16 µM): 89.7% | viability, T/C (second compound 0.0316 µM, first compound 10 µM): 70.8% | viability, T/C [3]: 94.3% | viability, T/C [4]: 88.4% | viability, T/C (second compound 0.1 µM, first compound 0.316 µM): 79.6% | viability, T/C (second compound 0.1 µM, first compound 1 µM): 85.3% | viability, T/C (second compound 0.1 µM, first compound 3.16 µM): 92.9% | viability, T/C (second compound 0.1 µM, first compound 10 µM): 68.1% | viability, T/C [5]: 94.2% | viability, T/C [6]: 90.7% | viability, T/C (second compound 0.316 µM, first compound 0.316 µM): 75.7% | viability, T/C (second compound 0.316 µM, first compound 1 µM): 84.1% | viability, T/C (second compound 0.316 µM, first compound 3.16 µM): 86.4% | viability, T/C (second compound 0.316 µM, first compound 10 µM): 71.4% | viability, T/C [7]: 85.9% | viability, T/C [8]: 96% | viability, T/C (second compound 1 µM, first compound 0.316 µM): 81.8% | viability, T/C (second compound 1 µM, first compound 1 µM): 82.1% | viability, T/C (second compound 1 µM, first compound 3.16 µM): 87.8% | viability, T/C (second compound 1 µM, first compound 10 µM): 70.7% | viability, T/C [9]: 90.4% | viability, T/C [10]: 87.3% | viability, T/C (second compound 3.16 µM, first compound 0.316 µM): 78.8% | viability, T/C (second compound 3.16 µM, first compound 1 µM): 88.8% | viability, T/C (second compound 3.16 µM, first compound 3.16 µM): 78.2% | viability, T/C (second compound 3.16 µM, first compound 10 µM): 73.3% | viability, T/C [11]: 94.9% | viability, T/C [12]: 83.8% | viability, T/C (second compound 10 µM, first compound 0.316 µM): 90.4% | viability, T/C (second compound 10 µM, first compound 1 µM): 87.9% | viability, T/C (second compound 10 µM, first compound 3.16 µM): 77.5% | viability, T/C (second compound 10 µM, first compound 10 µM): 68.2%

Cn1ncnc1[C@H]1c2n[nH]c(=O)c3cc(F)cc(c23)N[C@@H]1c1ccc(F)cc1 + Nc1ccc(C#CCN(C(=O)Cc2ncc(C(F)(F)F)cc2C(F)(F)F)c2ccc(F)cc2)nn1
IC50 (second compound 0.0316 µM): > 0.1 µM | IC50 (second compound 0.1 µM): > 0.1 µM | IC50 (second compound 0.316 µM): > 0.1 µM | IC50 (second compound 1 µM): > 0.1 µM | IC50 (second compound 3.16 µM): > 0.1 µM | IC50 (second compound 10 µM): > 0.1 µM | viability, T/C (second compound 0.0316 µM, first compound 0.000316 µM): 101% | viability, T/C (second compound 0.0316 µM, first compound 0.001 µM): 97.2% | viability, T/C (second compound 0.0316 µM, first compound 0.00316 µM): 101% | viability, T/C (second compound 0.0316 µM, first compound 0.01 µM): 93.7% | viability, T/C [1]: 95.8% | viability, T/C [2]: 97.8% | viability, T/C (second compound 0.1 µM, first compound 0.000316 µM): 96.7% | viability, T/C (second compound 0.1 µM, first compound 0.001 µM): 109% | viability, T/C (second compound 0.1 µM, first compound 0.00316 µM): 86.9% | viability, T/C (second compound 0.1 µM, first compound 0.01 µM): 92.6% | viability, T/C [3]: 99.8% | viability, T/C [4]: 94.8% | viability, T/C (second compound 0.316 µM, first compound 0.000316 µM): 88.7% | viability, T/C (second compound 0.316 µM, first compound 0.001 µM): 102% | viability, T/C (second compound 0.316 µM, first compound 0.00316 µM): 88.2% | viability, T/C (second compound 0.316 µM, first compound 0.01 µM): 99.6% | viability, T/C [5]: 95.5% | viability, T/C [6]: 110% | viability, T/C (second compound 1 µM, first compound 0.000316 µM): 98.9% | viability, T/C (second compound 1 µM, first compound 0.001 µM): 101% | viability, T/C (second compound 1 µM, first compound 0.00316 µM): 109% | viability, T/C (second compound 1 µM, first compound 0.01 µM): 99.5% | viability, T/C [7]: 105% | viability, T/C [8]: 120% | viability, T/C (second compound 3.16 µM, first compound 0.000316 µM): 97.8% | viability, T/C (second compound 3.16 µM, first compound 0.001 µM): 113% | viability, T/C (second compound 3.16 µM, first compound 0.00316 µM): 114% | viability, T/C (second compound 3.16 µM, first compound 0.01 µM): 91.6% | viability, T/C [9]: 101% | viability, T/C [10]: 108% | viability, T/C (second compound 10 µM, first compound 0.000316 µM): 89.8% | viability, T/C (second compound 10 µM, first compound 0.001 µM): 105% | viability, T/C (second compound 10 µM, first compound 0.00316 µM): 108% | viability, T/C (second compound 10 µM, first compound 0.01 µM): 94.2% | viability, T/C [11]: 101% | viability, T/C [12]: 105%
